Source: patent publication US10752612B2, “PLK4 inhibitors” (LUDWIG INSTITUTE FOR CANCER RESEARCH LTD, priority 2015, dated 2020)

Target: T1, human Plk4 kinase domain (aa 2-275) (Homo sapiens, UniProt O00444)
T1 construct: purified 6×His-tagged human Plk4 kinase domain (aa 2-275); 6xHis; made in house; host or cells: E. coli
T1 sequence (O00444 2-275): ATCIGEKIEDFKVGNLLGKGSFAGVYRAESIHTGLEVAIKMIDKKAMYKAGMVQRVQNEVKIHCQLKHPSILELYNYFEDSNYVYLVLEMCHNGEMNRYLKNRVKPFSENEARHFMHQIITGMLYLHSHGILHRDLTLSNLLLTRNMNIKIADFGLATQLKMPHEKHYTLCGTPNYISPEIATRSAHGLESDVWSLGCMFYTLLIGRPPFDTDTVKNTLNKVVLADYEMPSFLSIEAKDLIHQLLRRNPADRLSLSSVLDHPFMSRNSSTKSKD
Experiment: Plk4 kinase assay (ADP-Glo)
Type: biochemical
Settings: Table 1
Experimental: Kinase assays. […] The Plk4 concentration in the final reaction was 2.5-10 nM with a final pH of 8.0. […] Reactions were allowed to proceed for 4-16 hours at 25° C. Detection was performed using ADP-Glo reagent (Promega), following manufacturer's instructions. Luminescence was measured on an Infinite M1000 plate reader (Tecan). Data were fit using Prism (GraphPad) and Kis were calculated from IC50 data using the Cheng and Prusoff equation (37) or the Copeland formalism for tight-binding inhibitors (38).

SMILES	IC50
Cc1cc(Nc2nc(Sc3ccc(NC(=O)C4CC4)cc3)nc3c2CCC3)n[nH]1	> 1 µM
COc1c(Nc2cc(C)[nH]n2)nc(Sc2ccc(NC(=O)C3CCCC3)cc2)nc1N1CCCCC1	0.1 to 1 µM
COCCN(C)c1nc(Sc2ccc(NC(=O)C3CCCC3)cc2)nc(Nc2cc(C)[nH]n2)c1OC	0.1 to 1 µM
COCCNc1nc(Sc2ccc(NC(=O)C3CCCC3)cc2)nc(Nc2cc(C)[nH]n2)c1OC	< 1 µM
COc1c(Nc2cc(C)[nH]n2)nc(Sc2ccc(NC(=O)C3CCCC3)cc2)nc1N1CCN(C(C)=O)CC1	< 1 µM
COCCN1CCN(c2nc(Sc3ccc(NC(=O)C4CCCC4)cc3)nc(Nc3cc(C)[nH]n3)c2OC)CC1	< 1 µM
CCOc1c(Nc2cc(C)[nH]n2)nc(Sc2ccc(NC(=O)C3CC3)cc2)nc1N1CCOCC1	< 1 µM
CCOc1c(Nc2cc(C)[nH]n2)nc(Sc2ccc(NC(=O)C3CC3)cc2)nc1N1CCCCC1	0.1 to 1 µM
COc1c(Nc2cc(C)[nH]n2)nc(Sc2ccc(NC(=O)C3CCCC3)cc2)nc1N1CCN(C)CC1	< 1 µM
COc1c(Nc2cc(C)[nH]n2)nc(Sc2ccc(S(=O)(=O)Cc3ccccc3)cc2)nc1N1CCN(CCN2C3CCCC2CCC3)CC1	< 1 µM
COc1c(Nc2cc(C)[nH]n2)nc(Sc2ccc(S(=O)(=O)Cc3nccs3)cc2)nc1N1CCN(CCN(C)C)CC1	< 1 µM
CCS(=O)(=O)c1ccc(Sc2nc(Nc3cc(C)[nH]n3)c(OC)c(C3CCN(CCN(C)C)CC3)n2)cc1	< 1 µM
CCS(=O)(=O)c1ccc(Sc2nc(Nc3cc(C)[nH]n3)c(OC)c(N3CCC(CCN4C5CCCC4CCC5)CC3)n2)cc1	< 1 µM
COc1c(Nc2cc(C)[nH]n2)nc(Sc2ccc(S(=O)(=O)Cc3ncc[nH]3)cc2)nc1N1CCN(CCN(C)C)CC1	< 1 µM
CCS(=O)(=O)c1ccc(Sc2nc(C)c(OC)c(Nc3cc(C)[nH]n3)n2)cc1	< 1 µM
COc1c(Nc2cc(C)[nH]n2)nc(Sc2ccc(S(=O)(=O)CCN(C)C)cc2)nc1N1CCN(CCN(C)C)CC1	< 1 µM
CCOc1c(Nc2cc(C)[nH]n2)nc(Sc2ccc(S(=O)(=O)CC)cc2)nc1N1CCN(CCN(C)C)CC1	< 1 µM
Cc1cc(Nc2cc(N3CCN(CCN(C)C)CC3)nc(Sc3ccc(S(=O)(=O)Cc4ccccc4)cc3)n2)n[nH]1	< 1 µM
COc1c(Nc2cc[nH]n2)nc(Sc2ccc(S(=O)(=O)Cc3ccccc3)cc2)nc1N1CCN(CCN(C)C)CC1	< 1 µM
CCN(CC)c1nc(Sc2ccc(S(=O)(=O)Cc3ccccc3)cc2)nc(Nc2cc(C)[nH]n2)c1OC	< 1 µM
CCN(CC)c1nc(Sc2ccc(S(=O)(=O)CC)cc2)nc(Nc2cc(C)[nH]n2)c1OC	< 1 µM
CCOc1c(Nc2cc(C)[nH]n2)nc(Sc2ccc(S(=O)(=O)CC)cc2)nc1N1CCNCC1	< 1 µM
COc1c(Nc2cc(C)[nH]n2)nc(Sc2ccc(S(=O)(=O)Cc3cccc(OCc4ccccc4)c3)cc2)nc1N1CCN(CCN(C)C)CC1	< 1 µM
COc1c(Nc2cc(C)[nH]n2)nc(Nc2ccc(S(=O)(=O)Cc3ccccc3)cc2)nc1N1CCN(CCN(C)C)CC1	< 1 µM
CCOc1c(Nc2cc(C)[nH]n2)nc(Sc2ccc(S(=O)(=O)Cc3ccccc3)cc2)nc1N1CCN(CCN2C3CCCC2CC3)CC1	< 1 µM
CCOc1c(Nc2cc(C)[nH]n2)nc(Sc2ccc(S(=O)(=O)CC)cc2)nc1N1CCC(CCN(C)C)CC1	< 1 µM
CCOc1c(Nc2cc(C)[nH]n2)nc(Sc2ccc(S(=O)(=O)Cc3cc(F)ccc3F)cc2)nc1N1CCN(CCN(C)C)CC1	< 1 µM
COc1c(Nc2cc(C)[nH]n2)nc(Sc2ccc(S(=O)(=O)Cc3ccccc3)cc2F)nc1N1CCN(CCN(C)C)CC1	< 1 µM

Continued, values first:

IC50	SMILES
< 1 µM	COc1c(Nc2cc(C)[nH]n2)nc(Sc2ccc(S(=O)(=O)Cc3ccc(Cl)cc3)cc2)nc1N1CCN(CCN(C)C)CC1
< 1 µM	COc1c(Nc2cc(C)[nH]n2)nc(Sc2ccc(S(=O)(=O)Cc3cccs3)cc2)nc1N1CCN(CCN(C)C)CC1
< 1 µM	CCS(=O)(=O)c1ccc(Sc2nc(Nc3cc(C)[nH]n3)c(OC)c(N3CCNCC3)n2)cc1
< 1 µM	COc1c(Nc2cc(C)[nH]n2)nc(Sc2ccc(S(=O)(=O)Cc3ccccc3)cc2)nc1C1CCN(CCN(C)C)CC1
< 1 µM	COc1c(C)nc(Sc2ccc(S(=O)(=O)Cc3ccccc3)cc2)nc1Nc1cc(C)[nH]n1
< 1 µM	COc1c(Nc2cc(C)[nH]n2)nc(Sc2ccc(S(=O)(=O)c3ccccc3)cc2)nc1N1CCN(CCN(C)C)CC1
< 1 µM	COc1c(Nc2cc(C)[nH]n2)nc(Sc2ccc(S(=O)(=O)Cc3ncco3)cc2)nc1N1CCN(CCN(C)C)CC1
< 1 µM	CCOc1c(Nc2cc(C)[nH]n2)nc(Sc2ccc(S(=O)(=O)Cc3ccccc3)cc2)nc1N1CCN(CCN(C)C)CC1
< 1 µM	COc1c(Nc2cc(C)[nH]n2)nc(Sc2ccc(S(=O)(=O)Cc3ccccc3)cc2)nc1N1CCOCC1
< 1 µM	COc1c(Nc2cc(C)[nH]n2)nc(Sc2ccc(S(=O)(=O)Cc3ccccc3)cc2)nc1N(C)C
< 1 µM	COc1c(Nc2cc(C)[nH]n2)nc(Sc2ccc(S(=O)(=O)Cc3ccccc3)cc2)nc1N1CCCCC1
< 1 µM	COc1c(Nc2cc(C)[nH]n2)nc(Sc2ccc(S(=O)(=O)Cc3ccccc3)cc2)nc1N1CCN(CCN2CCN(C)CC2)CC1
< 1 µM	COc1c(Nc2cc(C)[nH]n2)nc(Sc2ccc(S(=O)(=O)Cc3ccccc3)cc2)nc1N1CCN(CCN2C3CCCC2CC3)CC1
< 1 µM	CCS(=O)(=O)c1ccc(Sc2nc(Nc3cc(C)[nH]n3)c(OC)c(N3CCCCC3)n2)cc1
< 1 µM	CCS(=O)(=O)c1ccc(Sc2nc(Nc3cc(C)[nH]n3)c(OC)c(N3CCOCC3)n2)cc1
< 1 µM	COc1c(Nc2cc(C)[nH]n2)nc(Sc2ccc(S(=O)(=O)Cc3cccc([N+](=O)[O-])c3)cc2)nc1N1CCN(CCN(C)C)CC1
< 1 µM	COc1c(Nc2cc(C)[nH]n2)nc(Sc2ccc(S(=O)(=O)Cc3ccc([N+](=O)[O-])cc3)cc2)nc1N1CCN(CCN(C)C)CC1
> 1 µM	CCOc1c(Nc2cc(C)[nH]n2)nc(Sc2ccc(S(=O)(=O)Cc3ccccc3)cc2)nc1N1CCNCC1
< 1 µM	COc1c(Nc2cc(C)[nH]n2)nc(Sc2ccc(S(=O)(=O)Cc3ccc(F)cc3F)cc2)nc1N1CCN(CCN(C)C)CC1
< 1 µM	COc1c(Nc2cc(C)[nH]n2)nc(Sc2ccc(S(=O)(=O)Cc3ccccc3F)cc2)nc1N1CCN(CCN(C)C)CC1
< 1 µM	COc1c(Nc2cc(C)[nH]n2)nc(Sc2ccc(S(=O)(=O)Cc3ccccc3)cc2)nc1N1CCN(CCN(C)c2ccccc2)CC1
< 1 µM	CCCOc1c(Nc2cc(C)[nH]n2)nc(Sc2ccc(S(=O)(=O)Cc3ccccc3)cc2)nc1N1CCN(CCN(C)C)CC1
< 1 µM	Cc1cc(Nc2nc(Sc3ccc(S(=O)(=O)Cc4ccccc4)cc3)nc(N3CCN(CCN(C)C)CC3)c2OC(C)C)n[nH]1
< 1 µM	COc1c(Nc2cc(C)[nH]n2)nc(Sc2ccc(S(=O)(=O)Cc3cccc(O)c3)cc2)nc1N1CCN(CCN(C)C)CC1
< 1 µM	COc1c(Nc2cc(C)[nH]n2)nc(Sc2ccc(S(=O)(=O)Cc3cccc(-c4ccccc4)c3)cc2)nc1N1CCN(CCN(C)C)CC1
< 1 µM	COc1c(Nc2cc(C)[nH]n2)nc(Sc2ccc(S(=O)(=O)Cc3cccc(C(C)=O)c3)cc2)nc1N1CCN(CCN(C)C)CC1
< 1 µM	COc1c(Nc2cc(C)[nH]n2)nc(Sc2ccc(S(=O)(=O)Cc3cccc([N+](=O)[O-])c3)cc2)nc1N1CCOCC1
< 1 µM	COc1c(Nc2cc(C)[nH]n2)nc(Sc2ccc(S(=O)(=O)Cc3ccccc3)cc2)nc1N1CCN(Cc2ccccc2)CC1
